Results from patent US12168763B2, “Microorganisms and methods for reducing bacterial contamination” (Melio Peptide Systems Inc., priority 2020, dated 2024).

Columns and labels:
Lactobacillus amylovorus = test: Soft-agar overlay screen of peptide-expressing yeast, other lactic acid bacteria; assay type: cell-based; conditions: sometimes weak
Lactobacillus casei = test: as above; assay type: cell-based; conditions: sometimes weak
L. reuteri CCUG 32624 = test: Soft-agar overlay screen of peptide-expressing yeast (BY4742)
L. fermentum NCCB 46038 [1] = test: as above
[2] = system: P. pentosaceus NCCB 31016; test: as above; conditions: for Inhibition, P. pentosaceus NCCB 31016: soft-agar overlay, peptide-expressing yeast
E. faecium NCCB 86023 = test: as above
W. confusa CCUG30113 = test: as above
W. confusa CCUG30943 = test: as above
L. lactis NCCB 26066 = test: as above
[3] = system: L. delbrueckii CCUG 34222; test: as above
L. fermentum NCCB 46038 [4] = test: Soft-agar overlay assay of S. cerevisiae BY4742 secreting persulcatusin variants from pHVXU plasmids; conditions: for Growth inhibition zones of L. fermentum: FIG. 7, BY4742 with pHVXU plasmids, 30° C., 1 day
[5] = system: Leuconostoc mesenteroides subsp. mesenteroides; test: Soft-agar overlay screen of peptide-expressing yeast, other lactic acid bacteria; assay type: cell-based
[6] = system: Lactobacillus delbrueckii subsp. delbrueckii; test: as above; assay type: cell-based
[7] = system: Lactococcus lactis subsp. cremoris; test: as above; assay type: cell-based
Pediococcus acidilactici = test: as above; assay type: cell-based
Pediococcus damnosus = test: as above; assay type: cell-based
Lactobacillus plantarum = test: as above; assay type: cell-based
Lactobacillus brevis = test: as above; assay type: cell-based
L. fermentum CCUG 72619 = assay type: cell-based, Lactobacillus fermentum
L. delbrueckii = test: Small-scale mock ethanol fermentation contaminated with L. delbrueckii; assay type: cell-based, Lactobacillus delbrueckii; conditions: 72 hours; contamination OD600 0.00005-0.05; virginiamycin 2 mg/L
Protocol: (§1) Small-scale mock ethanol fermentations were carried out in 2 mL microcentrifuge tubes with a venting hole in the cap made with a 30 gauge needle. Starter cultures of yeast were grown in YPD at 30° C. with agitation. Starter cultures of L. fermentum CCUG 72619 were grown in MRS at 37° C. without agitation. […] . Control fermentations contained 2 mg/L virginiamycin. The fermentations were incubated at 30° C. without agitation for 72 hours and then analyzed by HPLC.
(§2) . M2 wild-type with and without virginiamycin, M2-pPedA, M2-pPedA-K1A, M2-pPedA-K1A/T22A, and M2-pPedA-K1T were compared (FIGS. 14A-14D, 15A-15D). […] . The pediocin-expressing strains were not effective at completely preventing the lactic acid production by L. delbrueckii or P. pentosaceus. […] .

P. pentosaceus = test: Small-scale mock ethanol fermentation contaminated with P. pentosaceus; assay type: cell-based, Pediococcus pentosaceus; conditions: 72 hours; contamination OD600 0.00005-0.05; virginiamycin 2 mg/L
Protocol: as §1, §2

Substance | Antibacterial activity against Lactobacillus amylovorus (Lactobacillus amylovorus) | Antibacterial activity against Lactobacillus casei (Lactobacillus casei) | Inhibition, L. reuteri CCUG 32624 (L. reuteri CCUG 32624) | Inhibition, L. fermentum NCCB 46038 (L. fermentum NCCB 46038 [1]) | Inhibition, P. pentosaceus NCCB 31016 [2] | Inhibition, E. faecium NCCB 86023 (E. faecium NCCB 86023) | Inhibition, W. confusa CCUG30113 (W. confusa CCUG30113) | Inhibition, W. confusa CCUG30943 (W. confusa CCUG30943) | Inhibition, L. lactis NCCB 26066 (L. lactis NCCB 26066) | Inhibition, L. delbrueckii CCUG 34222 [3] | Growth inhibition zones of L. fermentum (L. fermentum NCCB 46038 [4]) | other results
Engineered persulcatusin with [Mutation S7-192-1, Engineered persulcatusin with [F6L/G9D/R13S/H14Q]] | showed some antibacterial activity | showed some antibacterial activity | + | + | − | − | + | + | − | − | significantly bigger zones | Increase in Activity (L. fermentum NCCB 46038 [4]; random mutagenesis clones of persulcatusin, increase of growth inhibition zones): ++++
Pediocin PA-1 from [Pediococcus acidilactici] (KYYGNGVTCGKHSCSVDWGKATTCIINNGAMAWATGGHQGNHKC; listed as Pediococcus acidilactici) | showed some antibacterial activity | showed some antibacterial activity | − |  | + | + | − | − | + | + |  | Antibacterial activity against Leuconostoc mesenteroides subsp. mesenteroides [5]: showed antibacterial activity; Antibacterial activity against Lactobacillus delbrueckii subsp. delbrueckii [6]: showed antibacterial activity; Antibacterial activity against Lactococcus lactis subsp. cremoris [7]: showed antibacterial activity; Antibacterial activity against Pediococcus acidilactici (Pediococcus acidilactici): showed antibacterial activity; Antibacterial activity against Pediococcus damnosus (Pediococcus damnosus): showed antibacterial activity; Antibacterial activity against Lactobacillus plantarum (Lactobacillus plantarum): showed antibacterial activity; Antibacterial activity against Lactobacillus brevis (Lactobacillus brevis): showed antibacterial activity; Growth inhibition zones of P. pentosaceus ([2]; FIG. 7, BY4742 with pHVXU-pedA, 30° C., 1 day): Growth inhibition zones of P. pentosaceus are observable
Wild-type persulcatusin [Wild-type persulcatusin [Ixodes persulcatus]] |  |  | − | + | − | − | + | − | − | − | Growth inhibition zones of L. fermentum are observable | 
virginiamycin |  |  |  |  |  |  |  |  |  |  |  | Variability in residual glucose (L. fermentum CCUG 72619): tended to be reduced; Lactic acid production by L. delbrueckii (L. delbrueckii): effective at preventing the lactic acid production; Lactic acid production by P. pentosaceus (P. pentosaceus): effective at preventing the lactic acid production
